According to publication PMC7956567, “Aqueous Solubility of Organic Compounds for Flow Battery Applications: Symmetry and Counter Ion Design to Avoid Low-Solubility Polymorphs” (Molecules, 2021):
Values after ≈ are worked out from the molar mass of the structure shown. Values joined by “and” are separate entries in the source; they are usually repeats but may differ in a detail not shown here. Identical values can stand only once. Counter-ions that a name gives are not always drawn.

Tests used:
[1] = Solubility by NMR method with imidazole as internal standard; type: physicochemical
From the text: (§1) Figure 3 illustrates the two methods used to determine solubility. The first method was gravimetry which required a higher amount of analyte to reduce any error arising from possible co-crystalized compounds. This method is easy to realize without the need for high-tech equipment, and its result is also a reference for the other method performed by NMR spectroscopy. The NMR method required only a small quantity of the analyte and was more accurate as no co-crystalized compounds were counted in its homogeneous solution phase.
The NMR spectra used to determine the solubility were recorded with a known amount of imidazole as the internal standard.
^1H NMR spectra were recorded in DMSO-d6 or CDCl3 solution at room temperature, on a Varian Unity Inova 500 spectrometer (Bruker Corp. Oxford, UK) (500 and 125 MHz for ^1H NMR and APT-NMR spectra, respectively), with the residual solvent signal as the lock and imidazole as the internal standard (only for solubility determination). Chemical shifts (δ) and coupling constants (J) are given in ppm and Hz, respectively.

[2] = design: method as in doi:10.1149/1945-7111/ab7550; conditions: water; disodium salts; cited from earlier work
Solubility by gravimetry = type: physicochemical; conditions: aqueous buffer, thermodynamic from solid, 1 M sulfuric acid, first isolated polymorph
From the text: as §1

[3] = 1 M acid, counter ion PO3 3− (phosphate), aqueous buffer, thermodynamic from solid, 1 M acid, counter ion PO3 3− [sic] (phosphate), read-out: Solubility in 1 M acid, PO3 3−
[4] = 1 M sulfuric acid, aqueous buffer, thermodynamic from solid, 1 M sulfuric acid, counter ion SO4 2−, final (more stable) polymorph, read-out: Solubility in 1 M acid, SO4 2−

In the case of “2,3-dimethyl-5-[(morpholin-4-yl)methyl]benzene-1,4-diol [MMHQ]”, the “Solubility in 1 M acid, ClO4−” value ([1]; 1 M acid, counter ion ClO4−) was 0.02 M, the “Solubility in 1 M acid, Cl−” value ([1]; 1 M acid, counter ion Cl−, NMR method, validated by gravimetric analysis) was 0.07 ^1 M and the “Solubility in 1 M acid, PO3 3−” value ([1]; 1 M acid, counter ion PO3 3− [sic] (phosphate)) was 0.48 M. The “Solubility in 1 M acid, SO4 2−” value ([1]; 1 M sulfuric acid, counter ion SO4 2−, final (more stable) polymorph) was 0.48 M.
For `O=C1c2ccc(S(=O)(=O)[O-])cc2C(=O)c2ccc(S(=O)(=O)[O-])cc21.[Na+].[Na+]` [2,6-AQDSNa2, 9,10-dioxo-9,10-dihydroanthracene-2,6-disulfonic acid disodium salt, reference compound], the solubility ([1]; water, disodium salt, NMR method with imidazole as internal standard, read-out: Aqueous solubility) is given as 40 mM and the Aqueous solubility [2] is given as “below 0.1 M”.
Compound `Oc1cc(CN2CCOCC2)c(O)cc1CN1CCOCC1` [DMHQ, 2,5-bis[(morpholin-4-yl)methyl]benzene-1,4-diol] has a solubility ([1]; 1 M acid, counter ion ClO4−, aqueous buffer, thermodynamic from solid, 1 M acid, counter ion ClO4−, read-out: Solubility in 1 M acid, ClO4−) of 10 mM (≈ 3.08 mg/mL), a solubility ([1]; 1 M acid, counter ion Cl−, thermodynamic from solid, 1 M acid, counter ion Cl−, NMR method, validated by gravimetric analysis, read-out: Solubility in 1 M acid, Cl−) of 30 mM (≈ 9.25 mg/mL) and a solubility [1, 3] of 530 mM (≈ 163 mg/mL). The solubility [1, 4] was 80 mM (≈ 24.7 mg/mL), the solubility ([1]; 1 M sulfuric acid, one year later, new polymorph, method not given, read-out: Solubility in 1 M sulfuric acid one year later) was < 100 mM and the solubility (Solubility by gravimetry) was 1700 mM (≈ 524 mg/mL).
In the case of `O=C1c2ccc(S(=O)(=O)O)cc2C(=O)c2cc(S(=O)(=O)O)ccc21` [2,7-AQDS disodium salt, 9,10-dioxo-9,10-dihydroanthracene-2,7-disulfonic acid], the Aqueous solubility [2] is listed as 0.58 M and 0.74 M.
Compound `Cc1c(O)c(CN2CCOCC2)c(C)c(O)c1CN1CCOCC1` [sym-DDHQ, 2,5-dimethyl-3,6-bis[(morpholin-4-yl)methyl]benzene-1,4-diol] has a solubility [1, 3] of 400 mM (≈ 135 mg/mL), a solubility [1, 4] of 60 mM (≈ 20.2 mg/mL) and a solubility ([1]; 1 M sulfuric acid, aqueous buffer, thermodynamic from solid, 1 M sulfuric acid, freshly obtained product, first polymorph, NMR method, read-out: Solubility of first polymorph in 1 M sulfuric acid) of 240 mM (≈ 80.7 mg/mL).
For `O=C1c2cccc(S(=O)(=O)[O-])c2C(=O)c2cccc(S(=O)(=O)[O-])c21.[Na+].[Na+]` [1,5-AQDSNa2, 9,10-dioxo-9,10-dihydroanthracene-1,5-disulfonic acid disodium salt], the Aqueous solubility [2] is listed as 0.07 M.
For `Cc1c(O)c(C)c(CN2CCOCC2)c(O)c1CN1CCOCC1` [asym-DDHQ, 2,6-dimethyl-3,5-bis[(morpholin-4-yl)methyl]benzene-1,4-diol], the solubility [1, 3] was 550 mM (≈ 185 mg/mL) and the solubility [1, 4] was 440 mM (≈ 148 mg/mL).
